Source: patent publication US9133137B2, “Derivatives of gefitinib” (Concert Pharmaceuticals, Inc., priority 2008, dated 2015)
Like-named read-outs stand apart in the source and are kept apart here.

Assay: Metabolic stability in human liver microsomes (in vitro t1/2)
Type: in vitro ADME
Details: pooled human liver microsomes, pooled human liver microsomes 3.0 mg/mL, test compound 0.5 μM, NADPH, 37° C.
Procedure: Microsomal Assay: Human liver microsomes (20 mg/mL) were obtained from Xenotech, LLC (Lenexa, Kans.). βnicotinamide adenine dinucleotide phosphate, reduced form (NADPH), magnesium chloride (MgCl2), and dimethyl sulfoxide (DMSO) were purchased from SigmaAldrich. The incubation mixtures were prepared according to Table 2:
Determination of Metabolic Stability: Two aliquots of this reaction mixture were used for a compound of this invention. The aliquots were incubated in a shaking water bath at 37° C. for 3 minutes. The test compound was then added into each aliquot at a final concentration of 0.5 μM. The reaction was initiated by the addition of cofactor (NADPH) into one aliquot (the other aliquot lacking NADPH served as the negative control). Both aliquots were then incubated in a shaking water bath at 37° C. Fifty microliters (50 μL) of the incubation mixtures were withdrawn in triplicate from each aliquot at 0, 5, 10, 20, and 30 minutes and combined with 50 μL of ice-cold acetonitrile to terminate the reaction. The same procedure was followed for gefitinib and 7-ethoxycoumarin, the positive control. Testing was done in triplicate.
Data analysis: The in vitro half-lives (t1/2s) for test compounds were calculated from the slopes of the linear regression of % parent remaining (ln) vs incubation time relationship using the following formula: in vitro t1/2=0.693/k, where k=[slope of linear regression of % parent remaining(ln)vs incubation time] Data analysis was performed using Microsoft Excel Software.
The metabolic stability of compounds of Formula A or I was tested using pooled liver microsomal incubations. Full scan LCMS analysis was then performed to detect major metabolites. Samples of the test compounds, exposed to pooled human liver microsomes, were analyzed using HPLCMS (or MS/MS) detection. For determining metabolic stability, multiple reaction monitoring (MRM) was used to measure the disappearance of the test compounds. For metabolite detection, Q1 full scans were used as survey scans to detect the major metabolites.

[1] = Experiment No. 1, read-out: t½ (min), Experiment No. 1
[2] = Experiment No. 2, read-out: t½ (min), Experiment No. 2
[3] = Experiment No. 3, read-out: t½ (min), Experiment No. 3
[4] = average of experiments 1-3, read-out: t½ (min), Ave

SMILES	half-life at 0.5 μM [1]	half-life at 0.5 μM [2]	half-life at 0.5 μM [3]	half-life at 0.5 μM [4]
[2H]C([2H])([2H])Oc1cc2ncnc(Nc3ccc(F)c(Cl)c3)c2cc1OC([2H])([2H])C([2H])([2H])C([2H])([2H])N1CCOCC1 [Compound 102, N-(3-Chloro-4-fluorophenyl)-7-(methoxy-d3)-6-(3-morpholino(propoxy-d6))quinazolin-4-amine]	22.5 min	20.8 min	21.8 min	21.7 min
COc1cc2ncnc(Nc3ccc(F)c(Cl)c3)c2cc1OCCCN1CCOCC1 [Gefitinib, (3-chloro-4-fluoro-phenyl)-[7-methoxy-6-(3-morpholin-4-yl-propoxy)-quinazolin-4-yl]-amine]	19.4 min	17.6 min	19.8 min	18.9 min
[2H]C([2H])([2H])Oc1cc2ncnc(Nc3ccc(F)c(Cl)c3)c2cc1OC([2H])([2H])C([2H])([2H])C([2H])([2H])N1C([2H])([2H])C([2H])([2H])OC([2H])([2H])C1([2H])[2H] [Compound 101, N-(3-Chloro-4-fluorophenyl)-7-(methoxy-d3)-6-(3-(morpholino-d8)propoxy-d6)quinazolin-4-amine]	24.3 min	23.8 min	23.1 min	23.7 min
[2H]C([2H])([2H])Oc1cc2ncnc(Nc3ccc(F)c(Cl)c3)c2cc1OCCCN1CCOCC1 [Compound 104, N-(3-Chloro-4-fluorophenyl)-7-(methoxy-d3)-6-(3-morpholinopropoxy)quinazolin-4-amine]	22.5 min	20.8 min	21.8 min	21.7 min
